Test results: patent publication US20220002280A1, “COMPOUNDS AND METHODS OF USE” (Ferro Therapeutics, Inc., priority 2019, published 2022)

Legend:
Format in all cases: cell-based, human
SJSA-1 = assay: Cell proliferation (Alamar Blue) assay, SJSA-1; details: Homo sapiens, SJSA-1 cells, 24 h treatment
Description: (§1) A cell viability assay was performed to assess the potency of the compounds in human cancer cell lines 786-0 (renal cell carcinoma), SJSA-1 (osteosarcoma), and/or A431 (epidermoid carcinoma). Additional cell lines, such as pancreatic cancer cell lines (e.g., Panc 02.13, BxPC-3, Panc 12, Panc 02.03, Panc 6.03, PSN-1, HPAC, and Capan-1), prostate cancer cell lines (e.g., PC-3, DU145, 22Rv1, NCI-H660, BPH1, LNCaP, BM-1604, and MDA PCa 2b), etc., can be tested in a similar method.
(§2) Cells (SJSA-1, 786-0 and/or A431) were seeded (5000 cells/100 μL/well) in 96-well tissue culture plate and incubated at 37° C./5% CO2 for 16-24 hours. The cells were then treated with compounds (25 μL of 5×). The compound concentrations were 10-0.0005 μM prepared in 3-fold serial dilutions with final DMSO concentration of 1%. The plates were then incubated for 24h at 37° C./5% CO2 in a moist environment. Then Alamar Blue™ reagent (final concentration 1×-12.5 μL) was added to each well and incubated for 1.5 hours at 37° C./5% CO2. The plates were read on fluorescence reader at 540 nm excitation and 590 nm emission wavelengths. The IC50 values were subsequently determined using a sigmoidal dose-response curve (variable slope) in GraphPad Prism® 5 software.

A431 = assay: Cell proliferation (Alamar Blue) assay, A431; details: Homo sapiens, A-431, A431 cells, 24 h treatment
Description: as §1, §2

786-O = assay: Cell proliferation (Alamar Blue) assay, 786-O; details: Homo sapiens, 786-0, 24 h, 786-O cells, 24 h treatment
Description: as §1, §2

Structure (SMILES) | IC50 (SJSA-1) [µM] | IC50 (A431) [µM] | IC50 (786-O) [µM]
C#CC(=O)N1C(c2ccnc(C)c2)c2ccc(OC)cc2C[C@@H]1CCCC (stereo in doubt) [Compound 48, 1-((1S,3S)-3-butyl-6-methoxy-1-(2-methylpyridin-4-yl)-3,4-dihydroisoquinolin-2(1H)-yl)prop-2-yn-1-one] | 0.05 | 5 | 0.053
C[C@H]1Cc2ccccc2C(c2ccc(N3CCOCC3)cc2)N1C(=O)CCl (stereo partly drawn) [Compound 1, 2-chloro-1-((3S)-3-methyl-1-(4-morpholinophenyl)-3,4-dihydroisoquinolin-2(1H)-yl)ethan-1-one] | 2.8 |  | 2
COC(=O)c1ccc([C@@H]2c3ccccc3C[C@H](C(=O)OC)N2C(=O)CCl)cc1 [Compound 2, methyl (1R,3R)-2-(2-chloroacetyl)-1-(4-(methoxycarbonyl)phenyl)-1,2,3,4-tetrahydroisoquinoline-3-carboxylate] | 0.855 | 8.7 | 0.742
COC(=O)c1ccc([C@H]2c3ccccc3C[C@H](C(=O)OC)N2C(=O)CCl)cc1 [Compound 3, methyl (1S,3R)-2-(2-chloroacetyl)-1-(4-(methoxycarbonyl)phenyl)-1,2,3,4-tetrahydroisoquinoline-3-carboxylate] | 0.736 | > 10 | 0.512
COC(=O)c1ccc([C@@H]2c3ccc(OC)cc3C[C@H](C)N2C(=O)CCl)cc1 [Compound 6, methyl 4-((1R,3S)-2-(2-chloroacetyl)-6-methoxy-3-methyl-1,2,3,4-tetrahydroisoquinolin-1-yl)benzoate] | 3.2 | > 10 | 3
COC(=O)c1ccc([C@H]2c3ccc(OC)cc3C[C@H](C)N2C(=O)CCl)cc1 [Compound 7, methyl 4-((1S,3S)-2-(2-chloroacetyl)-6-methoxy-3-methyl-1,2,3,4-tetrahydroisoquinolin-1-yl)benzoate] | 0.22 | 7.8 | 0.137
C#CC(=O)N1[C@H](c2ccc(F)cc2)c2ccc(OC)cc2C[C@@H]1C [Compound 10] | 0.278 | 8.6 | 0.164
CCCC[C@H]1Cc2cc(OC)ccc2[C@H](c2ccc(F)cc2)N1C(=O)CCl [Compound 11, 1-((1S,3S)-3-butyl-1-(4-fluorophenyl)-6-methoxy-3,4-dihydroisoquinolin-2(1H)-yl)-2-chloroethan-1-one] | 0.018 | > 10 | 0.016
CCCC[C@H]1Cc2cc(OC)ccc2[C@H](c2ccc(C(=O)NC3CCC3)cc2)N1C(=O)CCl [Compound 13, 4-((1S,3S)-3-butyl-2-(2-chloroacetyl)-6-methoxy-1,2,3,4-tetrahydroisoquinolin-1-yl)-N-cyclobutylbenzamide] | 0.005 | 3.6 | 0.002
C#CC(=O)N1[C@@H](CCCC)Cc2cc(OC)ccc2[C@@H]1c1ccc(C(=O)NCCOC)cc1 [Compound 14, 4-((1S,3S)-3-butyl-6-methoxy-2-propioloyl-1,2,3,4-tetrahydroisoquinolin-1-yl)-N-(2 methoxyethyl)benzamide] | 0.07 | 7.6 | 0.024
C#CC(=O)N1[C@@H](CCCC)Cc2cc(OC)ccc2[C@@H]1c1ccc(C(=O)NC2CCC2)nc1 [Compound 15, 5-((1R,3S)-3-butyl-6-methoxy-2-propioloyl-1,2,3,4-tetrahydroisoquinolin-1-yl)-N-cyclobutylpicolinamide] | 0.018 | 3.5 | 0.01
C#CC(=O)N1[C@@H](CCCC)Cc2cc(OC)ccc2[C@@H]1c1ccc(S(=O)(=O)NC2CCC2)cc1 [Compound 18, 4-((1S,3S)-3-butyl-6-methoxy-2-propioloyl-1,2,3,4-tetrahydroisoquinolin-1-yl)-N-cyclobutylbenzenesulfonamide] | 0.008 | 8.9 | 0.004
CCCC[C@H]1Cc2cc(OC)ccc2[C@H](c2ccc(NC34CC5CC(CC(C5)C3)C4)cc2)N1C(=O)CCl [Compound 27, 1-((1S,3S)-1-(4-(((3R,5R,7R)-adamantan-1-yl)amino)phenyl)-3-butyl-6-methoxy-3,4-dihydroisoquinolin-2(1H)-yl)-2-chloroethan-1-one] | 0.006 | 8.4 | 0.004
COc1ccc2c(c1)C[C@H](C)N(C(=O)CCl)[C@H]2c1ccc(N2CCOCC2)cc1 [Compound 33] |  |  | 0.259
COC(=O)c1ccc([C@H]2c3cc(OC)c(OC)cc3C[C@H](C)N2C(=O)CCl)cc1 [Compound 34] |  |  | 0.592
COC(=O)c1ccc([C@H]2c3ccccc3C[C@H](C)N2C(=O)CCl)cc1 [Compound 35] | 2.56 |  | 
C#CC(=O)N1[C@@H](CCCC)Cc2cc(OC)ccc2[C@@H]1c1ccc(C(=O)NC23CC4CC(CC(C4)C2)C3)cc1 [Compound 38, N-((3R,5R,7R)-adamantan-1-yl)-4-((1S,3S)-3-butyl-6-methoxy-2-propioloyl-1,2,3,4-tetrahydroisoquinolin-1-yl)benzamide] | 0.01 | 10 | 0.005
C#CC(=O)N1[C@@H](CCCC)Cc2cc(OC)ccc2[C@@H]1C1CCCCC1 [Compound 39, 1-((1S,3S)-3-butyl-1-cyclohexyl-6-methoxy-3,4-dihydroisoquinolin-2(1H)-yl)prop-2-yn-1-one] | 0.17 | > 10 | 0.158
C#CC(=O)N1[C@@H](CCCC)Cc2cc(OC)ccc2[C@@H]1c1ccccn1 [Compound 49, 1-((1R,3S)-3-butyl-6-methoxy-1-(pyridin-2-yl)-3,4-dihydroisoquinolin-2(1H)-yl)prop-2-yn-1-one] | 0.04 | 6.6 | 0.023
C#CC(=O)N1[C@@H](CCCC)Cc2cc(OC)ccc2[C@@H]1c1ccn(C)n1 [Compound 50, 1-[(1R,3S)-3-butyl-6-methoxy-1-(1-methyl-1H-pyrazol-3-yl)-1,2,3,4-tetrahydroisoquinolin-2-yl]prop-2-yn-1-one] | 0.101 | > 10 | 0.065
C#CC(=O)N1[C@@H](CCCC)Cc2cc(OC)ccc2[C@@H]1C1CCN(C)CC1 [Compound 54, 1-((3S)-3-butyl-6-methoxy-1-(1-methylpiperidin-4-yl)-3,4-dihydroisoquinolin-2(1H)-yl)prop-2-yn-1-one] | 0.659 | 5.8 | 0.743
C#CC(=O)N1[C@@H](CCCC)Cc2cc(OC)ccc2[C@@H]1c1ccc(-c2nc(C)no2)cc1 [Compound 55, 1-((1S,3S)-3-butyl-6-methoxy-1-(4-(3-methyl-1,2,4-oxadiazol-5-yl)phenyl)-3,4-dihydroisoquinolin-2(1H)-yl)prop-2-yn-1-one] | 0.032 | 2.3 | 0.027
C#CC(=O)N1[C@@H](CCCC)Cc2cc(OC)ccc2[C@@H]1C12CC(N)(C1)C2 [Compound 76, 1-((1S,3S)-1-(3-aminobicyclo[1.1.1]pentan-1-yl)-3-butyl-6-methoxy-3,4-dihydroisoquinolin-2(1H)-yl)prop-2-yn-1-one] | 0.623 | > 10 | 0.187
C#CC(=O)N1[C@@H](CCCC)Cc2cc(OC)ccc2[C@@H]1c1ccc(Nc2cccnc2)cc1 [Compound 94, 1-[(1S,3S)-3-butyl-6-methoxy-1-{4-[(pyridin-3-yl)amino]phenyl}-1,2,3,4-tetrahydroisoquinolin-2-yl]prop-2-yn-1-one] | 0.047 | > 10 | 0.108
C#CC(=O)N1[C@@H](CCCC)Cc2cc(OC)ccc2[C@@H]1c1ccc(NC(=O)c2ccnc(C)c2)cc1 [Compound 95, N-{4-[(1S,3S)-3-butyl-6-methoxy-2-(prop-2-ynoyl)-1,2,3,4-tetrahydroisoquinolin-1-yl]phenyl}-2-methylpyridine-4-carboxamide] | 0.2 | > 10 | 0.037
C#CC(=O)N1[C@@H](CCCC)Cc2cc(OC)ccc2[C@@H]1C12CC(NC(=O)c3ccncc3)(C1)C2 [Compound 96, N-(3-((1S,3S)-3-butyl-6-methoxy-2-propioloyl-1,2,3,4-tetrahydroisoquinolin-1-yl)bicyclo[1.1.1]pentan-1-yl)isonicotinamide] | 0.368 | > 10 | 0.163
C#CC(=O)N1[C@@H](CCCC)Cc2cc(OC)ccc2[C@@H]1c1ccc2ncccc2c1 [Compound 97, 1-((1S,3S)-3-butyl-6-methoxy-1-(quinolin-6-yl)-3,4-dihydroisoquinolin-2(1H)-yl)prop-2-yn-1-one] | 0.068 | > 10 | 0.026
C#CC(=O)N1[C@@H](CCCC)Cc2cc(OC)ccc2[C@@H]1c1ccc(NC(=O)OCCCCC)cc1 [Compound 98, pentyl N-{4-[(1S,3S)-3-butyl-6-methoxy-2-(prop-2-ynoyl)-1,2,3,4-tetrahydroisoquinolin-1-yl]phenyl}carbamate] | 0.053 | 8.92 | 0.024
C#CC(=O)N1[C@@H](CCCC)Cc2cc(OC)ccc2[C@@H]1c1ccc(CNC23CC4CC(CC(C4)C2)C3)cc1 [Compound 99] | 0.002 | 2.77 | 0.002
